This note sets out measurements from ChEMBL document CHEMBL1152064, “Nucleosides and nucleotides. 128. (2S)-2-deoxy-2-C-methyl-5-iodouridine (SMIU) as a novel potent anti-herpes virus agent” (Bioorg Med Chem Lett, 1994).

In experiment [1] the test system is NC-37. The experiment can be described thus: Cytotoxic concentration required to inhibit NC-37 cells by 50%. The experiment is classed as functional. The conditions noted are these: Homo sapiens.
The subject of experiment [2] is NC-37. The experiment can be described thus: Concentration required to reduce HSV-1 (KOS strain) induced cytopathogenicity in NC-37 cells. Type of experiment: functional, cell-based. The conditions noted are these: Homo sapiens. In general terms: Damage to the host cells serves as the signal in cytopathic effect assays.

Each structure is given as a SMILES string. In brackets after ≈: the same amount, converted by molar mass.

`C[C@H]1[C@H](O)[C@@H](CO)O[C@H]1n1cc(Cl)c(N)nc1=O`: the CC50 (usually the concentration that lowers cell viability or growth by half) in the experiment with NC-37 [1] is > 100 mg/L. Also, the half-maximal effective concentration (EC50) (in general, the concentration at which the effect is half-maximal) in the experiment on NC-37 [2] is > 100 mg/L.

As to `C[C@H]1[C@H](O)[C@@H](CO)O[C@H]1n1cc(F)c(N)nc1=O`, in the experiment on NC-37 [1], the CC50 came to 0.22 mg/L (≈ 0.849 µM). Besides, the concentration giving a half-maximal response (EC50) in the experiment with NC-37 [2] was determined as 0.22 mg/L (≈ 0.849 µM).

Consider `C[C@H]1[C@H](O)[C@@H](CO)O[C@H]1n1cc(I)c(=O)[nH]c1=O`, for which, in the experiment with NC-37 [1], the half-maximal cytotoxic concentration (CC50) was > 100 mg/L. This compound had an EC50 in the experiment with NC-37 [2] of 0.14 mg/L (≈ 0.38 µM).

As to `C[C@H]1[C@H](O)[C@@H](CO)O[C@H]1n1cc(Br)c(N)nc1=O`, the 50% cytotoxic concentration (CC50) with NC-37 [1] was > 100 mg/L. For the same compound, the half-maximal effective concentration (EC50) in the experiment with NC-37 [2] was > 100 mg/L.

As for `C[C@H]1[C@H](O)[C@@H](CO)O[C@H]1n1cc(F)c(=O)[nH]c1=O`, in the experiment on NC-37 [1], the CC50 was > 100 mg/L. In the experiment with NC-37 [2], the concentration giving a half-maximal response (EC50) is > 100 mg/L.

For the compound `C[C@H]1[C@H](O)[C@@H](CO)O[C@H]1n1cc(I)c(N)nc1=O`, in the experiment on NC-37 [1], the 50% cytotoxic concentration (CC50) is > 100 mg/L. Moreover, in the experiment with NC-37 [2], the EC50 was 4.8 mg/L (≈ 13.1 µM).

Take `C[C@H]1[C@H](O)[C@@H](CO)O[C@H]1n1cc(Br)c(=O)[nH]c1=O`: in the experiment with NC-37 [1], the CC50 was > 100 mg/L. This compound also gave a concentration for a half-maximal effect (EC50) in the experiment with NC-37 [2] of 11 mg/L (≈ 34.3 µM).

Take `C[C@H]1[C@H](O)[C@@H](CO)O[C@H]1n1cc(Cl)c(=O)[nH]c1=O`: in the experiment with NC-37 [1], the CC50 was > 100 mg/L. Also, in the experiment on NC-37 [2], the EC50 was > 100 mg/L.

On to `Nc1nc2c(ncn2COCCO)c(=O)[nH]1` [ACYCLOVIR], for which the CC50 with NC-37 [1] is > 100 mg/L. The compound further yielded an EC50 in the experiment on NC-37 [2] of 0.17 mg/L (≈ 0.755 µM).

The compound `Nc1nc(=O)n([C@@H]2O[C@H](CO)[C@@H](O)[C@@H]2F)cc1I` [FIACITABINE] yielded a CC50 in the experiment on NC-37 [1] of 63 mg/L (≈ 170 µM). The compound further yielded an EC50 in the experiment on NC-37 [2] of 0.1 mg/L (≈ 0.269 µM).

In the experiment on NC-37 [1], `O=c1[nH]c(=O)n([C@@H]2O[C@H](CO)[C@@H](O)[C@@H]2F)cc1I` [FIALURIDINE] gave a half-maximal cytotoxic concentration (CC50) of 6.7 mg/L (≈ 18 µM). Moreover, a half-maximal effect in the experiment on NC-37 [2] (EC50) was put at 0.06 mg/L (≈ 0.161 µM).

In the experiment on NC-37 [1], `O=c1[nH]c(=O)n([C@H]2C[C@H](O)[C@@H](CO)O2)cc1I` [IDOXURIDINE] returned a CC50 of 80 mg/L (≈ 226 µM). Further, in the experiment on NC-37 [2], the EC50 was > 80 mg/L.
